The subject of data set [1] is goblet cell mucus of human colorectal mucosal tissue. The data set can be described thus: Fluorescent staining of frozen sliced specimen of human colonic mucosa (Test Example A). To be noted: for Fluorescent staining signal in goblet cell mucus, sliced section: 10 μm frozen section, 0.5% periodic acid pretreatment, 50 μM overnight. On the procedure: A tissue to be stained was washed with phosphate buffered saline (PBS), was immersed in 30% (w/v) of sucrose in the PBS, and was frozen in O.C.T. COMPOUND (45833, Sakura Finetek) at −80° ° C. overnight. The frozen tissue was cut into a thickness of 10 μm with a cryostat (CM3050 S, Leica Biosystems). The resultant frozen section was washed with PBS three times, and was subjected to pretreatment with a 0.5% solution of periodic acid (HIOA) (86171, MUTO PURE CHEMICALS CO., LTD.) at room temperature for 30 minutes. The section was washed with PBS three times, and was incubated in FAM hydrazide, 5-isomer((50 µM, 24170, BroadPharm, in this description, sometimes referred to as “FAM hydrazide”), Alexa Fluor 488 hydrazide (50 μM, A10436, ThermoFisher Scientific, Inc.), BDP FL hydrazide (50 μM, 11470, Lumiprobe Corporation), or fluorescein (50 µM, FUJIFILM Wako Pure Chemical Corporation) diluted with PBS at room temperature overnight. After that, the section was washed with PBS and an image thereof was obtained with a confocal microscope.
A section of a human colorectal mucosal tissue sampled from the non-tumor region of a surgical specimen of colorectal cancer was subjected to fluorescent staining through use of FAM hydrazide, Alexa Fluor 488 hydrazide, BDP FL hydrazide, or fluorescein serving as a fluorescent skeleton as a stain.

Data set [2] has as its system human colonic mucosal tissue. The experiment in a line: Clearing and whole-mount 3D fluorescent staining of human colonic mucosal tissue (Test Example B). The settings on record: for 3D imaging signal of cleared tissue: CUBIC clearing, periodic acid, 50 μM, 2-3 days, excitation 488 nm; for Staining property for a sample having a thickness after clearing treatment: summary of Examples and Test Examples. On the procedure: CUBIC-L and CUBIC-R+reagents (T3740 and T3741, Tokyo Chemical Industry Co., Ltd.) were used in tissue clearing. Atissue removal procedure is simply described below.
A formaldehyde-fixed tissue specimen was washed with PBS, and was subsequently immersed in a 50% (v/v) CUBIC-L reagent (mixture containing water and the CUBIC-L reagent at 1:1) overnight. Further, the specimen was immersed in the CUBIC-L reagent at 37° C. for 5 days or 6 days while being gently shaken. Next, each of those specimens was washed with PBS, was immersed in 30% (w/v) of sucrose in the PBS, and was frozen in O.C.T. COMPOUND at −80° C. overnight. […] After having been washed with PBS, the specimen was stained by being gently shaken at room temperature for 2 days or 3 days together with FAM hydrazide, 5-isomer (50 μM), Compound 1 (50 μM), Alexa Fluor 488 hydrazide (50 µM), BDP FL hydrazide ([…]), or fluorescein (50 µM) in PBS containing 0.5% (v/v) of Triton X-100 (12967, Nacalai Tesque, Inc.). When nuclear counterstaining was performed, propidium iodide (PI) (10 μg/mb, P21493, Life Technologies Corporation) or RedDot-2 (1:100, 40061-T, Biotium, Inc.) was also added to the staining solution. After the staining step, the specimen was washed with PBS, and was immersed in a 50% (v/v) CUBIC-R+reagent (mixture containing water and the CUBIC-R+reagent at 1:1) overnight. Further, the specimen was immersed in the CUBIC-R+reagent for 1 day or 2 days while being gently shaken. A cleared tissue specimen thus obtained was subjected to 3D imaging with a confocal fluorescence microscope or a light-sheet fluorescence microscope. A wavelength of 488 nm was applied as the excitation wavelength of each of FAM hydrazide, Compound 1, Alexa Fluor 488 hydrazide, BDP FL hydrazide, and fluorescein, and the fluorescence detection wavelength range of each of these materials was from 490 nm to 562 nm.
A 3D image was obtained by using a confocal microscope (Zeiss LSM880 Confocal/Multiphoton, Carl Zeiss AG) or a light-sheet fluorescence microscope (Zeiss Lightsheet 7, Carl Zeiss AG), All pieces of raw image data were reconstructed and analyzed with Imaris software (version 9.2.1, Bitplane Inc.).
A human colonic mucosal tissue after its formalin fixation, which had been excised into a square about 4 mm on a side, was subjected to clearing treatment and to whole-mount 3D tissue staining through use of FAM hydrazide, Alexa Fluor 488 hydrazide, BDP FL hydrazide, or fluorescein as a stain.

Data set [3] in a line: Fluorescence spectra before and after addition of propionaldehyde. In kind it is physicochemical. The settings on record: 0.02 mmol/L in 10 mmol/L sodium phosphate buffer pH 7.4; propionaldehyde 0.10 mmol/L; room temperature 4 days. On the procedure: Propionaldehyde was added to a 10 mmol/L sodium phosphate buffer (pH: 7.4) containing 0. 02 mmol/L of each of DAF-2 and Compound 2 so that its final concentration became 0.10 mmol/L, followed by stirring at room temperature for 4 days. The absorption and fluorescence spectra of each of the solutions before the addition of the aldehyde and after the addition were measured.

Data set [4] concerns mucus of a goblet cell of colonic mucosa. The experiment in a line: Staining of frozen sliced section of human colonic mucosal tissue (Example 5). To be noted: 8 μm frozen section, 50 μM in PBS, room temperature 1 day, confocal microscope. The text has this: A fluorescent probe containing a diaminobenzene structure, such as DAF-2 or Compound 2, was examined for its staining property in the mucus of a goblet cell by using a frozen sliced section of a human colonic mucosal tissue as a positive control analyte. Specifically, a sliced frozen section was cut out of the colonic mucosal tissue after its formalin fixation, and was stained with a group of candidate fluorescent probes and washed with phosphate buffered saline. After that, an image of the section was taken with a confocal fluorescence microscope.
(§1) Specifically, the human colonic mucosal tissue sample after the formalin fixation was sufficiently washed with PBS, and was then immersed in PBS containing 30% (w/v) of sucrose, followed by the production of a frozen block with TISSUE-TEK O. C. T. COMPOUND. The frozen block was sliced into a thickness of 8 μm to produce a frozen section. The frozen section was washed with PBS, and was then stained with a solution, which had been obtained by diluting DAF-2 ([…]) or Compound 2 (50 μM) with PBS, at room temperature for 1 day. After that, the stained product was sufficiently washed with PBS. Then, the washed product was mounted with a water-soluble mounting medium, and an image thereof was taken with a confocal microscope.

In data set [5] the test system is basement membrane of a renal glomerulus. The experiment in a line: Staining of basement membrane of renal glomerulus (Example 5). The settings on record: staining as for colonic section. On the procedure: as §1
The subject of data set [6] is colonic mucosal epithelium. The data set can be described thus: Staining combined with CUBIC tissue clearing, 3D imaging (Example 5). To be noted: CUBIC-L/CUBIC-R+ clearing, periodic acid pretreatment, 50 μM, room temperature 3 days. Also on record: species or system human. On the procedure:
Specifically, the human colonic mucosal tissue sample after the formalin fixation was sufficiently washed with PBS, and was then immersed in a solution, which had been obtained by diluting a CUBIC-L reagent with distilled water to 1/2, at 37° ° C. while being gently shaken. After that, the sample was immersed in the CUBIC-L reagent, and was treated at 37° C. while being gently shaken. During the treatment, the CUBIC-L reagent was replaced with a new one at an interval of once per 1 to 2 days. After that, the sample was sufficiently washed with PBS, and was then immersed in PBS containing 30% (w/v) of sucrose. After that, a frozen block of the Sample was produced by using TISSUE-TEK O.C.T. COMPOUND. The frozen block was thawed, and was then sufficiently washed with PBS and subjected to pretreatment with a […] aqueous solution of periodic acid, followed by staining with a solution, which had been obtained by diluting DAF-2 (50 μM) with PBS, at room temperature for 3 days. After that, the stained product was sufficiently washed with PBS, and was then immersed in a solution obtained by diluting a CUBIC-R+reagent with distilled water to 1/2, followed by gentle shaking at room temperature. After that, the resultant was immersed in the CUBIC-R+reagent at room temperature for 1 day while being gently shaken. An image of the resultant was taken with a confocal microscope. […]

A short description of data set [7]: Light characteristics: molar extinction coefficient and quantum yield (Table 1). In kind it is physicochemical. To be noted: 10 mM sodium phosphate buffer, pH 7.4. From the text:
When propionaldehyde was caused to act on DAF-2 (product model number: SK1001-01, Goryo Chemical, Inc.), Compound 16 below was obtained. It was recognized that Compound 16 was fluorescent and its fluorescence intensity increased along with the formation of a benzimidazole ring. […] The formation of a covalent bond with the aldehyde enables detection by fluorescence emission.

For data set [8] the following is noted: 100 mM sodium phosphate buffer, pH 7.4, cited from earlier work.

Entries after “also recorded” stand apart in the source; their conditions may differ. Where two headings read alike, the source gives them in different places.

For `Cc1cc(C)n2c1C=C1C=CC(CCC(=O)NN)=[N+]1[B-]2(F)F.Cl` [BDP FL hydrazide], the “Fluorescent staining signal in goblet cell mucus, sliced section” value in data set [1] is reported as “weak”. For the same compound, in data set [2], the “3D imaging signal of cleared tissue” value is recorded as “weak” and the “Staining property for a sample having a thickness after clearing treatment” value (“Staining property” below) was “insufficient”.
As to `Cc1cc(N)c(N)cc1-c1c2ccc(=O)cc-2oc2cc(O)ccc12` [Compound 2], the “Fluorescence intensity after addition of the aldehyde compared to before” value in data set [3] is reported as “increase”. Further, in data set [4], the “Staining of mucus of goblet cell of colonic mucosa” value was “clearly stained”. Also, the “Visualization of basement membrane of renal glomerulus” value in data set [5] is reported as “clearly visualized”. Also, the “3D imaging of colonic mucosal epithelium” value in data set [6] is listed as “enabled the 3D imaging”. In data set [2], the “Staining property” value is reported as “significantly excellent”.
In data set [7], `CCc1nc2cc(C(=O)O)c(-c3c4ccc(=O)cc-4oc4cc(O)ccc34)cc2[nH]1` [Compound 16] came in with a Quantum yield of 0.85 and a λabs of 489 nm. In data set [7] (in M-1 cm-1 (unit assumed)), the Molar extinction coefficient is given as 63,000.
Regarding `Nc1cc(C(=O)O)c(-c2c3ccc(=O)cc-3oc3cc(O)ccc23)cc1N` [DAF-2], the “Fluorescence intensity after addition of the aldehyde compared to before” value in data set [3] is on record as “increase”. Further, in data set [4], the “Staining of mucus of goblet cell of colonic mucosa” value is given as “clearly stained”. The “Visualization of basement membrane of renal glomerulus” value in data set [5] is listed as “clearly visualized”. Besides, the “3D imaging of colonic mucosal epithelium” value in data set [6] is “enabled the 3D imaging”. Moreover, the “Staining property” value in data set [2] is “significantly excellent”. In data set [8], the Quantum yield was 0.005 and the λabs was 486 nm. The Molar extinction coefficient in data set [8] (in M-1 cm-1 (unit assumed)) is listed as 79,000.
Turning to Alexa Fluor 488 hydrazide, the “Fluorescent staining signal in goblet cell mucus, sliced section” value in data set [1] was “clear positive image; also recorded: clear staining”. For the same compound, the “Fluorescent staining signal without oxidation treatment with HIO4, sliced section” value in data set [1] (no HIO4 oxidation) is reported as “not obtained”. In addition, in data set [2], the “3D imaging signal of cleared tissue” value is “weak” and the “Staining property” value is “insufficient”.
